Results: US12065427B2, “Heterocyclic compounds capable of activating STING” (BOEHRINGER INGELHEIM INTERNATIONAL GMBH, priority 2021, dated 2024)
In brackets after ≈: the same amount, converted by molar mass.

How the values were obtained:
[1] = test system: Human STING (hSTING, residues 155-341); assay: Interaction with hSTING as determined by Differential Scanning Fluorimetry (DSF); format: binding; details: 100 μM test compounds, 5 μM target protein
Outline: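 Thermal shift of hSTING (residues 155-341, 5 μM) with test compounds at 100 μM in 20 mM Tris, 150 mM NaCl, pH 7.5, using 5× SYPRO Orange. Ramped 25 to 95 °C at 0.5 °C per cycle (15 s/cycle) by real-time PCR fluorescence. Tm from duplicate melting curves, averaged.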

STING HAQ-variant = target: T1, STING HAQ-variant (Homo sapiens, UniProt Q86WV6, G230A/H232R/R293Q/R71H); assay: IRF-inducible SEAP reporter assay in THP1-Blue ISG cells, STING HAQ-variant; format: cell-based; details: STING HAQ-variant (parental or re-introduced), 24 hours incubation
T1 construct: parental THP1-Blue™ ISG cell lines (which express endogenously HAQ); host or cells: THP1-Blue ISG (parental, endogenous HAQ) or STING-KO clone re-transduced with HAQ (MSCV-ires-GFP-Blasti)
T1 sequence (Q86WV6 whole entry R71H/G230A/H232R/R293Q): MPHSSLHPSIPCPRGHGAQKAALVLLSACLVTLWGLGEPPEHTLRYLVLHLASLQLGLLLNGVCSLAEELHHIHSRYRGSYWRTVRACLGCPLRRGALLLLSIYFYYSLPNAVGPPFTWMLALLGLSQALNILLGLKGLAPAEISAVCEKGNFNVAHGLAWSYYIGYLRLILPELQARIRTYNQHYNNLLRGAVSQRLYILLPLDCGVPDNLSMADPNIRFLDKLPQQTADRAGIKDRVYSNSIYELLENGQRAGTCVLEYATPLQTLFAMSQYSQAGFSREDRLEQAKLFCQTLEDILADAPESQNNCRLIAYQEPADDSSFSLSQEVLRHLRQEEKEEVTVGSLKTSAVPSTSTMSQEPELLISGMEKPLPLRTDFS
Outline: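 THP1-Blue ISG cells expressing STING HAQ, either endogenously (parental) or re-introduced after CRISPR knockout, were seeded at 10000 cells/well. They received 8-point compound dilutions (0.5% DMSO final) for 24 hours at 37° C. IRF-driven SEAP was read with Quanti-Blue at OD 620 nm after 30 minutes, and EC50 came from four-parameter fits.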

[2] = Solubility measurements (HTS) at pH 6.8; format: physicochemical; details: kinetic from dmso stock; aqueous McIlvaine buffer pH 6.8, 24 h at room temperature, from 10 mM DMSO stock; read-out: Soblubility
Procedure: Aqueous solubilities were determined from 10 mM stock solutions of the compounds in DMSO diluted to a final concentration of 250 μM with aqueous McIlvaine buffer at pH 6.8, or with acetonitrile/water (1:1) as a reference. Samples were shaken for 24 h at room temperature in 96-well plates (Whatman Uniplate® 96 wells, 750 μL, polypropylene, round bottom). The plate was then centrifuged at 3,000 rpm for 2 min. 250 μL of each sample were transferred to a Millipore MultiScreenHTS filter plate with a polycarbonate membrane, pore size 0.45 μm. Filtrates were collected by centrifugation at 3,000 rpm for 2 min. The dissolved concentrations were determined by UPLC/UV (Ultra-Performance Liquid Chromatography/ultraviolet) on a Waters ACQUITY UPLC® SQD system equipped with a Waters ACQUITY UPLC® BEH 2.1×50 mm C18 column, particle size 1.7 μm, using a short gradient with water/0.1% formic acid as solvent A and acetonitrile/0.1% formic acid as solvent B (5 to 95% B with 1.7 min total cycle time). Compounds signals were measured with a photodiode array UV detector operated at 254 nm. Solubilities were determined with a one point calibration by comparing peak areas relative to the reference standard using Waters Empower software.

in vitro = details: human, Caco-2, pH 7.4
Procedure: Cellular Permeability Measurements
Caco-2 cells were obtained from Leibniz Institute DSMZ-German Collection of Microorganisms and Cell Cultures (Braunschweig, Germany) and cultured in DMEM (Dulbecco's modified Eagle medium) containing (in final concentrations) 10% FCS (fetal calf serum), 1% NEAA (non-essential amino acids), 2 mM Glutamin, 100 U/mL Penicillin and 100 μg/mL Streptomycin. Caco-2 cells were seeded either onto 24-well Transwell inserts (Corning, #3379) for bidirectional permeability assays at a density of 160,000 cells/cm^2 and cultured for 3 weeks, with media change on every second day.
For bidirectional permeability assays 10 mM DMSO stock solutions were diluted in transport buffer (final concentrations: 128.13 mM NaCl, 5.36 mM KCl, 1 mM MgSO4, 1.8 mM CaCl2, 4.17 mM NaHCO3, 1.19 mM Na2HPO4, 0.41 mM NaH2PO4, 15 mM 2-[4-(2-hydroxyethyl)piperazin-1-yl]ethanesulfonic acid (HEPES), 20 mM glucose, pH 7.4) containing 0.25% bovine serum albumin to a final concentration of 10 μM of the test compounds and added to the apical or basal compartment. Cells were incubated with the compounds for up to 2 h. Samples from the opposite compartment were taken at different timepoints.
Compound concentrations in the compartments were quantified using a RapidFire-based high-throughput HPLC/MS/MS system (high performance liquid chromatography/mass spectrometry; Bio-Cius) that was customized to a fully automated and flexible platform, termed RIAS. In this modified setup, the sample was aspirated by a vacuum pump into a 10 μL sample loop for 250 ms and flushed onto a C4 cartridge (3.8 μL bed volume; Bio-Cius) with the aqueous mobile phase (99.9% water, 0.09% formic acid, and 0.01% TFA; flow rate 1.5 mL/min). Prior to bioanalysis samples were spiked with internal standard solution and diluted with acetonitrile (ACN) for protein precipitation. Measurement was operated in multiplereaction monitoring (MRM) mode. Quantification was performed using external calibration. A solid-phase extraction step retained the analyte for 3000 ms while interfering matrix (e.g., buffer components) was removed. With a simple step gradient, the analyte was back-eluted from the cartridge for 3,000 ms with the organic mobile phase (99.9% acetonitrile/methanol [1:1, v:v], 0.09% formic acid, and 0.01% TFA) and flushed into the mass spectrometer at a flow rate of 1.25 mL/min. Afterwards, the cartridge was re-equilibrated with the aqueous mobile phase for 500 ms (flow rate 1.5 mL/min).
Apparent permeability coefficients in the apical to basal direction (Papp,AB) and in the basal to apical direction (Papp,BA) and efflux ratios were calculated as follows: Papp,AB=QAB/(C0·s·t) Papp,BA=QBA/(C0·s·t) Efflux ratio=Papp,BA/Papp,AB
where Q is the amount of compound recovered in the receiver compartment after the incubation time t, C0 the initial compound concentration given to the donor compartment, and s the surface area of the Transwell inserts. […] In addition, transepithelial electrical resistance (TEER) values are measured for each plate before the permeability assay, and total recovery in donor and receiver compartments was determined for each compound.

STING AQ-variant = target: T2, STING AQ-variant (Homo sapiens, UniProt Q86WV6, G230A/H232R/R293Q); assay: IRF-inducible SEAP reporter assay in THP1-Blue ISG cells, STING AQ-variant; format: cell-based; details: 24 hours incubation
T2 construct: expressed in transfected cells; host or cells: THP1-Blue ISG hSTING KO clone, retroviral MSCV-ires-GFP-Blasti
T2 sequence (Q86WV6 whole entry G230A/H232R/R293Q): as the sequence (Q86WV6 whole entry R71H/G230A/H232R/R293Q) above, with H71R counted along it
Text: (§1) In Vitro Cytokine Induction Measured Via Activation of an Interferon Regulatory Factor Inducible Reporter Gene
(§2) Activation of the STING protein expressed in cell lines results in an increase of interferon production. By the stable integration of an interferon regulatory factor (IRF)-inducible SEAP gene (secreted embryonic alkaline phosphatase) reporter construct the functional interferon signaling pathway can be monitored. Using Invivogen's THP1-Blue™ ISG colorimetric enzyme assay and a suitable optical density (OD) reader the activity of SEAP can be detected and quantified. This technique could be used to characterize pharmacological modification of the STING pathway.
(§3) Several single nucleotide polymorphisms have been identified in the human STING gene. To determine the activity of the above described compounds, THP1-Blue™ ISG reporter cell lines expressing the different human STING variants have been generated. To do so, the endogenous human STING was first deleted using the CRISPR/CAS9 system: THP1-Blue ISG cells were electroporated with ALL-IN-ONE CRISPR plasmids targeting the STING gene (purchased from Sigma encoding the gRNA and GFP as a reporter gene for successful transduction). GFP positive cells then were sorted 24 h post transfection and expanded. Cells were then dispersed in semisolid methocel medium to allow single cell clone isolations. Clones were then screened for cGAMP responsiveness using the Quanti-Blue™ reporter assay. Non-responsive clones were subsequently analysed for STING loss by western blotting and sequencing of the STING locus.
(§4) For the overexpression of the human STING variants, a confirmed THP1-Blue™ ISG hSTING KO clone was transduced with individual retroviral plasmids (MSCV-ires-GFP-Blasti) encoding the allelic variants of hSTING (WT (H232R), HAQ, R232H, AQ and R293Q). Transduced cells were sorted for different levels of GFP fluorescence and STING allele expression was analysed by western blot.
(§5) Measurements of SEAP activity were performed in THP1-Blue™ ISG cells stably expressing the different human STING isoforms and the IRF-inducible SEAP reporter construct. Cells were cultivated in RPMI1640 medium with 10% fetal calf serum, 50 μg/ml Penicillin-Streptomycin, 100 μg/ml Zeocin, and 100 μg/ml Normocin in a 37°, 95% humidity and 5% CO2 incubator.
(§6) In preparation for the assay, the cells were distributed into the assay plates with a density of 10000 cells/15 μL per well. Compounds were prepared by an 8 point serial dilution in 50% aqueous DMSO and a final dilution step into medium to ensure a final DMSO concentration of 0.5% in the assay. 5 μL of diluted compounds were added to the plates, followed by a 24 hours incubation at 37° C.
(§7) At the day of the assay, 75 μl per well of Quanti-Blue™ reagent was added to all wells of the plate and the plate was incubated another 30 minutes at 37° C. The OD at 620 nm was measured on the EnVision reader (PerkinElmer).
(§8) EC50 values and Hill slopes were derived from 8-point four parametric non-linear curve fittings with the Megalab software (Boehringer Ingelheim) using the OD at 620 nm.
(§9) Data of EC50 values can be found in tables 2a-2e.
Data of EC50 values on STING AQ-variant can be found in table 2e: […]

STING H232R-variant = target: T3, STING H232R-variant (Homo sapiens, UniProt Q86WV6, H232R); assay: IRF-inducible SEAP reporter assay in THP1-Blue ISG cells, STING H232R-variant; format: cell-based; details: STING H232R-variant (WT), 24 hours incubation
T3 construct: expressed in transfected cells; host or cells: THP1-Blue ISG hSTING KO clone, retroviral MSCV-ires-GFP-Blasti
T3 sequence (Q86WV6 whole entry H232R): as the sequence (Q86WV6 whole entry R71H/G230A/H232R/R293Q) above, with H71R, A230G, Q293R counted along it
Text: as §1, §2, §3, §4, §5, §6, §7, §8, §9
Data of EC50 values on STING H232R-variant can be found in table 2b: […]

STING R293Q-variant = target: T4, STING R293Q-variant (Homo sapiens, UniProt Q86WV6, H232R/R293Q); assay: IRF-inducible SEAP reporter assay in THP1-Blue ISG cells, STING R293Q-variant; format: cell-based; details: 24 hours incubation
T4 construct: expressed in transfected cells; host or cells: THP1-Blue ISG hSTING KO clone, retroviral MSCV-ires-GFP-Blasti
T4 sequence (Q86WV6 whole entry H232R/R293Q): as the sequence (Q86WV6 whole entry R71H/G230A/H232R/R293Q) above, with H71R, A230G counted along it
Text: as §1, §2, §3, §4, §5, §6, §7, §8, §9
Data of EC50 values on STING R293Q-variant can be found in table 2d: […]

STING R232H-variant = target: T5, STING R232H-variant (Homo sapiens, UniProt Q86WV6); assay: IRF-inducible SEAP reporter assay in THP1-Blue ISG cells, STING R232H-variant; format: cell-based; details: 24 hours incubation
T5 construct: expressed in transfected cells; host or cells: THP1-Blue ISG hSTING KO clone, retroviral MSCV-ires-GFP-Blasti
T5 sequence (Q86WV6 whole entry, stated change not applied): as the sequence (Q86WV6 whole entry R71H/G230A/H232R/R293Q) above, with H71R, A230G, R232H, Q293R counted along it
Text: as §1, §2, §3, §4, §5, §6, §7, §8, §9
Data of EC50 values on STING R232H-variant can be found in table 2c: […]

SMILES	thermal shift (ΔTm) [1] [K]	EC50 (STING HAQ-variant) [nM]	solubility kinetic at 24 h [2] [µg/mL]	Papp A→B at 10 μM (in vitro) [×10⁻⁶ cm/s]	efflux ratio at 10 μM (in vitro)	EC50 (STING AQ-variant) [nM]	EC50 (STING H232R-variant) [nM]	EC50 (STING R293Q-variant) [nM]	EC50 (STING R232H-variant) [nM]
Cc1cccc2c(-c3cccc4c3OCO4)nn(-c3ccc(N4CC5C(C4)C5C(=O)O)nc3)c12 (stereo not drawn) [compound 30, 3-(5-[3-(2H-1,3-benzodi-oxol-4-yl)-7-methyl-1H-in-dazol-1-yl]pyridin-2-yl}-3-azabicyclo[3.1.0]hexane-6-carboxylic acid]	20	6100	42 (≈ 92.4 µM)	14	0.9	–	–	–	–
Cc1cc(C)c2c(c1)c(-c1cccc3nn(C)cc13)nn2-c1ccc(N2CCC(C(=O)O)CC2)nc1 [Example #70, 1-(5-{2′,5,7-trimethyl-1H,2′H-[3,4′-biindazol]-1-yl}pyridin-2-yl)piperidine-4-carboxylic acid]	–	16100	74 (≈ 154 µM)	18	1.2	–	–	–	–
COc1cccc2c(-c3cccc4nn(C)cc34)nn(-c3ccc(N4CC5C(C4)C5C(=O)O)nc3)c12 (stereo not drawn) [compound 29, 3-(5-{7-methoxy-2′-methyl-1H,2′H-[3,4′-biindazol]-1-yl}pyridin-2-yl)-3-azabicyclo[3.1.0]hex-ane-6-carboxylic acid]	22	800	63 (≈ 131 µM)	–	–	700	200	600	600
Cc1cccc2c(-c3cccc4nn(C)cc34)nn(-c3ccc(N4CCN(CC(=O)O)C(=O)C4)nc3)c12 [compound 58, 2-[4-(5-{2′,7-dimethyl-1H,2′H-[3,4′-biindazol]-1-yl}pyridin-2-yl)-2-oxopi-perazin-1-yl]acetic acid]	23	6800	84 (≈ 170 µM)	–	–	–	–	–	–
Cc1cccc2c(-c3cccc4cnccc34)nn(-c3ccc(N4CCC(C(=O)O)CC4)nc3)c12 [compound 62, 1-{5-[3-(isoquinolin-5-yl)-7-methyl-1H-indazol-1-yl]pyridin-2-yl}piperidine-4-carboxylic acid]	20	3100	49 (≈ 106 µM)	11	1.2	–	–	–	–
Cc1cc(C)c2c(c1)c(-c1cccc3nn(C)cc13)nn2-c1ccc(N2CC3C(C2)C3C(=O)O)nc1 (stereo not drawn) [compound 69, 3-(5-{2′,5,7-trimethyl-1H,2′H-[3,4′-biindazol]-1-yl}pyridin-2-yl)-3-azabicy-clo[3.1.0]hexane-6-car-boxylic acid]	–	1400	70 (≈ 146 µM)	14	1	700	300	700	300
Cc1c(CO)ccc2c(-c3cccc4nn(C)cc34)nn(-c3ccc(N4CC5C(C4)C5C(=O)O)nc3)c12 (stereo not drawn) [compound 71, 3-{5-[6-(hydroxymethyl)-2′,7-dimethyl-1H,2′H-[3,4′-biindazol]-1-yl]pyri-din-2-yl}-3-azabicy-clo[3.1.0]hexane-6-car-boxylic acid]	29	600	67 (≈ 135 µM)	–	–	–	–	–	–
Cc1cccc2c(-c3cccc4cnc(N(C)C)cc34)nn(-c3ccc(N4CCC(C(=O)O)CC4)nc3)c12 [Example #63, 1-(5-{3-[3-(dimethyla-mino)isoquinolin-5-yl]-7-methyl-1H-indazol-1-yl}pyridin-2-yl)piperidine-4-carboxylic acid]	19	4900	75 (≈ 148 µM)	19	0.6	–	–	–	–
Cn1cc2c(-c3nn(-c4ccc(N5CC6C(C5)C6C(=O)O)nc4)c4c(Cl)cccc34)cccc2n1 (stereo not drawn) [compound 26, 3-(5-{7-chloro-2′-methyl-1H,2′H-[3,4′-biindazol]-1-yl}pyridin-2-yl)-3-azabicy-clo[3.1.0]hexane-6-carbox-ylic acid]	–	900	60 (≈ 124 µM)	–	–	700	200	600	200
Cc1cccc2c(-c3cccc4nn(C)cc34)nn(-c3ccc(N4CCC(c5nn[nH]n5)CC4)nc3)c12 [Example #19, 2′,7-dimethyl-1-{6-[4-(2H-1,2,3,4-tetrazol-5-yl)piperi-din-1-yl]pyridin-3-yl}-1H,2′H-3,4′-biindazole]	21	6500	51 (≈ 104 µM)	–	–	–	–	–	–
Cc1c(-c2cnn(C)c2)ccc2c(-c3cccc4nn(C)cc34)nn(-c3ccc(N4CC5C(C4)C5C(=O)O)nc3)c12 (stereo not drawn) [Example #28, 3-{5-[2′,7-dimethyl-6-(1-methyl-1H-pyrazol-4-yl)-1H,2′H-[3,4′-biindazol]-1-yl]pyridin-2-yl}-3-azabicy-clo[3.1.0]hexane-6-carbox-ylic acid]	27	80	87 (≈ 160 µM)	–	–	–	–	–	–
Cc1cccc2c(-c3cccc4nn(C)cc34)nn(-c3ccc(N4CCC5(CC4)C(=O)N(C)C(=O)N5C)nc3)c12 [compound 9, 8-(5-{2′,7-dimethyl-1H,2′H-[3,4′-biindazol]-1-yl}pyri-din-2-yl)-1,3-dimethyl-1,3,8-triazaspiro[4.5] decane-2,4-dione]	23	1000	–	23	0.3	700	100	600	200
